Measured values from patent US20230241178A1, “LONG ACTING GLP-1/GIP DUAL AGONISTS” (SUN PHARMACEUTICAL INDUSTRIES LIMITED, priority 2020, published 2023).
Marks after values point to notes of the source that are not given here.

Key:
[1] = test system: type 2 diabetic mouse (db/db) model; assay: Reduction of HbA1c in db/db type 2 diabetic mice after chronic treatment (HbA1c, insulin, triglycerides, food consumption, body weight); assay type: in vivo; settings: for Cumulative Food Consumption Day 0-28 / Insulin / Triglycerides / Δ% HbA1c vs. DC / Body Weight (%) Day 28 vs. Baseline: db/db mice
Method: This study was performed in a type 2 diabetic mouse (db/db) model. […] All the treatments were injected subcutaneously every third day for 10 doses (q3d*10). % HbA1c, Insulin, Triglycerides levels were measured on Day 0, day 14 and day 28. Cumulative food intake from day 0-28 and % Change in body weight compared to day 0 was calculated on day 28.

GLP-1R = molecular target: T1, GLP-1R (Homo sapiens, UniProt P43220); assay: cAMP assay (cAMP Hunter eXpress GPCR Assay) on GLP-1R-expressing cells; assay type: cell-based; settings: read-out: half-maximal effective concentration, cellular cAMP
T1 construct: host or cells: GLP-1R-expressing cells of the cAMP Hunter eXpress GPCR Assay kit
Method: (§1) In-vitro potency determination was performed using cAMP assay. G protein coupled receptor (GPCR) activation following ligand binding initiates a series of second messenger cascades that results in a cellular response. Signaling by the GLP-1R and GIP-R involves activation of adenylate cyclase and cAMP production. Cellular cAMP production was determined using the cAMP Hunter™ eXpress GPCR Assay (Eurofins DiscoveRx).

[2] = test system: type 2 diabetic mouse (db/db) model; assay: Reduction in blood glucose and effect on body weight and food intake, single dose, db/db mice (Tables 4, 5); assay type: in vivo
Method: The effect of Compounds of present invention on blood glucose was studied on mice. This study was performed in a type 2 diabetic mouse (db/db) model. […] Baseline blood glucose was measured from all the animals. All animals were administered with its respective test item subcutaneously. […] Delta blood glucose (mM) was calculated. Similarly body weight changes and cumulative food consumption was measured at 96 hr post treatment.

[3] = test system: type 2 diabetic mouse (db/db) model; assay: Effect on blood glucose, food intake and body weight, single s.c. dose 10 nM/kg, db/db mice (Tables 8, 9); assay type: in vivo; settings: 10 nM/kg/s.c/single dose
Method: This study was performed in a type 2 diabetic mouse (db/db) model. […] Baseline blood glucose was measured from all the animals. All the animals were administered with test items subcutaneously. Blood glucose was measured at 4 hr, 12 hr, 24 hr, 48 hr, 72 hr and 96 hr post treatment. Delta blood glucose (mM) was calculated. Body weight changes and cumulative food consumption was measured at 96 hr post treatment. Similarly the effect of Compounds 11-15 on blood glucose, food intake and body weight was studied in a separate study except for Compound 13. The results are shown in Table 8 (effect on blood glucose) and Table 9 (effect on body weight and food consumption).

[4] = test system: type 2 diabetic mouse (db/db) model; assay: Effect of Compound 2 and 7 on blood glucose, body weight and food consumption in mice, up to 72 hr (Tables 6, 7); assay type: in vivo; settings: 10 nM/kg
Method: Similarly body weight changes and cumulative food consumption was measured at 72 hr post treatment.

[5] = test system: type 2 diabetic mouse (db/db) model; assay: Reduction of HbA1c in db/db type 2 diabetic mice after chronic treatment (HbA1c, insulin, triglycerides, food consumption, body weight); assay type: in vivo; settings: 9 nM/kg and 18 nM/kg dose
GIPR = molecular target: T2, GIPR (Homo sapiens, UniProt P48546); assay: cAMP assay (cAMP Hunter eXpress GPCR Assay) on GIPR-expressing cells; assay type: cell-based; settings: read-out: half-maximal effective concentration, cellular cAMP
T2 construct: host or cells: GIPR-expressing cells of the cAMP Hunter eXpress GPCR Assay kit
T2 sequence (P48546 22-466): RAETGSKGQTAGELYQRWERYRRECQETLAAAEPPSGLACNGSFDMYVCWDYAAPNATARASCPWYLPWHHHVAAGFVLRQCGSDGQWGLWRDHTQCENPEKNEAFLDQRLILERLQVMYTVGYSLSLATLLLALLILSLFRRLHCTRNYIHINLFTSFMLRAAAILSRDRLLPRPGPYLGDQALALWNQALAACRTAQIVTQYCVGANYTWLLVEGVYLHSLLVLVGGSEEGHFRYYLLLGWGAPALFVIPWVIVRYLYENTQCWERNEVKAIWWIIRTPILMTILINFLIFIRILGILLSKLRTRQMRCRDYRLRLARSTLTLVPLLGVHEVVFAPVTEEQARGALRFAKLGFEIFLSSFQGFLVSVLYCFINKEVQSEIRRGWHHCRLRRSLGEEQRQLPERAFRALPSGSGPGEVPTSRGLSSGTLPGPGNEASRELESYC
Method: as §1

[6] = 6 nM/kg s.c., separate study n = 5

T1 sequence (P43220 24-463): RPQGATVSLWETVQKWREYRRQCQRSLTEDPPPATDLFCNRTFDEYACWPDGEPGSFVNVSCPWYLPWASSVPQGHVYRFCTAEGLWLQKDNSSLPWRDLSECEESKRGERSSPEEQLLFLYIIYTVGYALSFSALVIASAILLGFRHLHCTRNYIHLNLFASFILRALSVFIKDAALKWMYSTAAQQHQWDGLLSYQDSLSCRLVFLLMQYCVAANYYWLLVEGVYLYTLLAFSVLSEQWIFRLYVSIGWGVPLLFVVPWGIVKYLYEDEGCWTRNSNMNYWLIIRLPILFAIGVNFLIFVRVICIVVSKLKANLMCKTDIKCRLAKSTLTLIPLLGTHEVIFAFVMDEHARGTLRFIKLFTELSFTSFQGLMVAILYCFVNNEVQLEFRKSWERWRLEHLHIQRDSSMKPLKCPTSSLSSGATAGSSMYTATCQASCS

SMILES: CC[C@H](C)[C@H](NC(=O)[C@H](CC(C)C)NC(=O)[C@H](Cc1c[nH]c2ccccc12)NC(=O)[C@H](CCC(N)=O)NC(=O)[C@@H](NC(=O)[C@H](Cc1ccccc1)NC(=O)[C@H](C)NC(=O)[C@H](CCCCNC(=O)COCCOCCNC(=O)C(C)(C)NC(=O)CC[C@H](NC(=O)CCCCCCCCCCCCCCCCCCC(=O)O)C(=O)O)NC(=O)[C@H](CCC(N)=O)NC(=O)[C@H](C)NC(=O)[C@@H](NC(=O)[C@H](CCCCN)NC(=O)[C@H](CC(=O)O)NC(=O)[C@H](CC(C)C)NC(=O)C(C)(C)NC(=O)[C@@H](NC(=O)[C@H](CO)NC(=O)[C@H](Cc1ccc(O)cc1)NC(=O)[C@H](CC(=O)O)NC(=O)[C@H](CO)NC(=O)[C@@H](NC(=O)[C@H](Cc1ccccc1)NC(=O)[C@@H](NC(=O)CNC(=O)[C@H](CCC(=O)O)NC(=O)C(C)(C)NC(=O)[C@@H](N)Cc1ccc(O)cc1)[C@@H](C)O)[C@@H](C)O)[C@@H](C)CC)[C@@H](C)CC)C(C)C)C(=O)N[C@@H](C)C(=O)NCC(=O)NCC(=O)N1CCC[C@H]1C(=O)N[C@@H](CO)C(=O)N[C@@H](CO)C(=O)NCC(=O)N[C@@H](C)C(=O)N1CCC[C@H]1C(=O)N1CCC[C@H]1C(=O)N1CCC[C@H]1C(=O)N[C@@H](CO)C(N)=O [Compound 2]
- insulin levels compared to the diabetic control group (in words) ([1]; 9 nM/kg, day 14): statistically significant increase in insulin levels
- triglycerides compared to the diabetic control group (in words) ([1]; 4.5, 9 and 18 nM/kg): statistically significant lowering of triglycerides
- change in HbA1c compared to the diabetic control (in words) ([1]; 4.5, 9 and 18 nM/kg, day 14 and 28th day): statistically significant change in HbA1c
- body weight compared to the diabetic control group (in words) ([1]; 4.5, 9 and 18 nM/kg, day 28): statistically significant decrease in body weight
- cumulative food consumption compared to the diabetic control group (in words) ([1]; 4.5, 9 and 18 nm/kg, course of the study): statistically significant reduction in cumulative food consumption
- Cumulative Food Consumption Day 0-28 ([1]; 4.5 nM/kg s.c. q3d*10): 112.4
- Cumulative Food Consumption Day 0-28 ([1]; 9 nM/kg s.c. q3d*10): 111.8
- Cumulative Food Consumption Day 0-28 ([1]; 18 nM/kg s.c. q3d*10): 89.5
- Insulin ([1]; Day 14, 4.5 nM/kg s.c. q3d*10): 34.75 ng/mL
- Triglycerides ([1]; Day 14, 4.5 nM/kg s.c. q3d*10): 218.7 mg/dL
- Δ% HbA1c vs. DC ([1]; Day 14, 4.5 nM/kg s.c. q3d*10): −2.43*** %
- Insulin ([1]; Day 14, 9 nM/kg s.c. q3d*10): 69.63 ng/mL
- Triglycerides ([1]; Day 14, 9 nM/kg s.c. q3d*10): 169.8 mg/dL
- Δ% HbA1c vs. DC ([1]; Day 14, 9 nM/kg s.c. q3d*10): −2.90*** %
- Insulin ([1]; Day 14, 18 nM/kg s.c. q3d*10): 75.09 ng/mL
- Triglycerides ([1]; Day 14, 18 nM/kg s.c. q3d*10): 172.4 mg/dL
- Δ% HbA1c vs. DC ([1]; Day 14, 18 nM/kg s.c. q3d*10): −3.04*** %
- Body Weight (%) Day 28 vs. Baseline ([1]; Day 28, 4.5 nM/kg s.c. q3d*10): −7.0%
- Insulin ([1]; Day 28, 4.5 nM/kg s.c. q3d*10): 33.44 ng/mL
- Triglycerides ([1]; Day 28, 4.5 nM/kg s.c. q3d*10): 208.9 mg/dL
- Δ% HbA1c vs. DC ([1]; Day 28, 4.5 nM/kg s.c. q3d*10): −3.64*** %
- Body Weight (%) Day 28 vs. Baseline ([1]; Day 28, 9 nM/kg s.c. q3d*10): −8.9%
- Insulin ([1]; Day 28, 9 nM/kg s.c. q3d*10): 53.87 ng/mL
- Triglycerides ([1]; Day 28, 9 nM/kg s.c. q3d*10): 147.4 mg/dL
- Δ% HbA1c vs. DC ([1]; Day 28, 9 nM/kg s.c. q3d*10): −4.19*** %
- Body Weight (%) Day 28 vs. Baseline ([1]; Day 28, 18 nM/kg s.c. q3d*10): −9.3%
- Insulin ([1]; Day 28, 18 nM/kg s.c. q3d*10): 76.93 ng/mL
- Triglycerides ([1]; Day 28, 18 nM/kg s.c. q3d*10): 144.3 mg/dL
- Δ% HbA1c vs. DC ([1]; Day 28, 18 nM/kg s.c. q3d*10): −4.25*** %
- EC50 (GLP-1R): 4.1 nM
- Cumulative Food Intake (g) 0-96 hr, Mean ([2]; 3 nM/kg s.c., n = 6 study): 14.6*** g
- Body Weight Change (%) 96 hr., Mean ([2]; 3 nM/kg s.c., n = 6 study): −5*** %
- Cumulative Food Intake (g) 0-96 hr, Mean [2, 6]: 18.2 g
- Body Weight Change (%) 96 hr., Mean [2, 6]: −0.9%
- Delta Blood Glucose (mM), Mean ([2]; 4 hr post treatment, @ 3 nM s.c., n = 6 study): -12.6 mM
- Delta Blood Glucose (mM), Mean ([2]; 4 hr post treatment, @ 6 nM s.c., separate study n = 5): −14.4*** mM
- Delta Blood Glucose (mM), Mean ([2]; 12 hr post treatment, @ 3 nM s.c., n = 6 study): -10.6 mM
- Delta Blood Glucose (mM), Mean ([2]; 12 hr post treatment, @ 6 nM s.c., separate study n = 5): −18.0*** mM
- Delta Blood Glucose (mM), Mean ([2]; 24 hr post treatment, @ 3 nM s.c., n = 6 study): -8.3 mM
- Delta Blood Glucose (mM), Mean ([2]; 24 hr post treatment, @ 6 nM s.c., separate study n = 5): −16.9*** mM
- Delta Blood Glucose (mM), Mean ([2]; 48 hr post treatment, @ 3 nM s.c., n = 6 study): -7.3 mM
- Delta Blood Glucose (mM), Mean ([2]; 48 hr post treatment, @ 6 nM s.c., separate study n = 5): −8.9*** mM
- Delta Blood Glucose (mM), Mean ([2]; 72 hr post treatment, @ 3 nM s.c., n = 6 study): -4.7 mM
- Delta Blood Glucose (mM), Mean ([2]; 72 hr post treatment, @ 6 nM s.c., separate study n = 5): 0.1 mM
- Delta Blood Glucose (mM), Mean ([2]; 96 hr post treatment, @ 3 nM s.c., n = 6 study): -0.3 mM
- Delta Blood Glucose (mM), Mean ([2]; 96 hr post treatment, @ 6 nM s.c., separate study n = 5): 2.1 mM
- Delta Blood Glucose (mM), Mean ([3]; 0 hr (baseline)): 0.0 mM
- Body Wt. Change (%) 96 hr. vs. Baseline, Mean [3]: −4.2*** %
- Cumulative food Intake (g) 96 hr. vs. Baseline, Mean [3]: 12.3*** g
- blood glucose reduction post treatment (in words) [3]: statistically significant blood glucose reduction
- Delta Blood Glucose (mM), Mean ([3]; 4 hr post treatment): −13.1*** mM
- Delta Blood Glucose (mM), Mean ([3]; 12 hr post treatment): −11.7*** mM
- Delta Blood Glucose (mM), Mean ([3]; 24 hr post treatment): −8.2*** mM
- Delta Blood Glucose (mM), Mean ([3]; 48 hr post treatment): −6.0** mM
- Delta Blood Glucose (mM), Mean ([3]; 72 hr post treatment): -2.8 mM
- Delta Blood Glucose (mM), Mean ([3]; 96 hr post treatment): 0.6 mM
- time for which efficacy on blood glucose was maintained [4]: 72 h
- % Body wt. change 72 hr. vs. 0 hr., Mean ([4]; mice, n = 8): −7.2*** %
- Cumulative Food Consumption (0-72 hr) (g), Mean ([4]; mice, n = 8): 8.4*** g
- Delta Blood Glucose (mM), Mean ([4]; 4 hr post treatment, mice, n = 8): -15.6 mM
- Delta Blood Glucose (mM), Mean ([4]; 8 hr post treatment, mice, n = 8): -16.3 mM
- Delta Blood Glucose (mM), Mean ([4]; 12 hr post treatment, mice, n = 8): -16.0 mM
- Delta Blood Glucose (mM), Mean ([4]; 24 hr post treatment, mice, n = 8): -14.6 mM
- Delta Blood Glucose (mM), Mean ([4]; 72 hr post treatment, mice, n = 8): -4.1 mM
- reduction in HbA1c on day 29 more than the reduction on day 14 [5]: more than 40%
- EC50 (GIPR): 2.3 nM
